Seven compounds from PubChem BioAssay (NCI) can be followed below.

“And” between values parts separate entries of the source, which are not always exact repeats. Equal entries are not always repeated.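 Cells were grown in 96-well plates and exposed to each compound for 48 hours at five concentrations; endpoints were interpolated linearly between bracketing concentrations, or set to the highest concentration if not reached. The concentration for 50% growth inhibition is given as GI50. TGI is the concentration that stops growth completely.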 Where only a bound is given, the exact number is not on record here.

Assay in all cases: growth of human tumour cells (NCI), 48 h
For experiment [1], the system named is SK-MEL-28 melanoma.
Experiment [2] has as its system SK-MEL-5 melanoma.
The test system of experiment [3] is K-562 leukemia.
The subject of experiment [4] is MALME-3M melanoma.
The test system of experiment [5] is M14 melanoma.
Experiment [6] concerns SK-OV-3 ovarian.
For experiment [7], the system named is SNB-19 CNS.
Experiment [8] deals with MCF7 breast.
Experiment [9] concerns OVCAR-4 ovarian.
Experiment [10] has as its system U251 CNS.

With `CN(CCCCCCCCNc1ccnc2ccccc12)Cc1ccc(-c2ccc(-c3ccc(C#N)cc3)s2)cc1`, the GI50 in [1] was 1.65 µM; in experiment [2], 0.89 µM; in experiment [3], 0.0172 µM; in experiment [4], 903 nM; in experiment [5], 0.443 µM; in experiment [6], 1.65 µM. Also, the GI50 is 1310 nM in [7], 183 nM in [8], 139 nM in experiment [9] and 248 nM in experiment [10]. The TGI in experiment [1] is 3.06 µM; in [2], 2.17 µM; in experiment [3], 0.107 µM; in [4], 2210 nM; in experiment [5], 1.56 µM; in [6], 3.27 µM. Besides, the TGI was 2.79 µM in experiment [7], 0.533 µM in experiment [8], 1.99 µM in experiment [9] and 0.842 µM in experiment [10].
`COc1ccc(C2CC(c3ccc4ccccc4c3)=NN2c2nc(O)c(C3=c4cc(Cl)ccc4=NC3=O)s2)cc1` (stereo not given): the GI50 was 0.0258 µM and < 0.005 µM in [1]; 0.0175 µM and < 0.005 µM in experiment [2]; 0.0371 µM and < 0.005 µM in experiment [3]; 18.2 nM and < 5 nM in [4]; 0.0354 µM and < 0.005 µM in [5]; 0.0217 µM and < 0.005 µM in experiment [6]. The GI50 in experiment [7] was 34 nM and < 5 nM; in [8], 29.2 nM and < 5 nM; in experiment [9] it was 21.5 nM; in [10] it was 19.9 nM and < 5 nM. The TGI in [2] is 0.0337 µM and < 0.005 µM; in [3], 1.65 µM; in experiment [4], 36.3 nM and < 5 nM; in experiment [7] it was 1.18 µM; in [9], 0.0487 µM; in [10], 0.0414 µM and < 0.005 µM.
For `CCCCNP1(NCCCC)=NP(NCCCC)(NCCCC)=NP(NCCCC)(NCCCC)=NP(NCCCC)(NCCCC)=N1`, the GI50 in experiment [1] is 2.64 µM; in experiment [2], 0.541 µM; in experiment [3], 0.103 µM; in [4], 232 nM; in [5] it was 1.08 µM; in [6], 1.07 µM. Besides, the GI50 in experiment [7] is 1120 nM; in experiment [8] it was 356 nM; in [9], 180 nM; in experiment [10], 296 nM. Besides, the TGI came out at 8.68 µM in [1]; 1.89 µM in experiment [2]; 3.83 µM in experiment [3]; 2600 nM in experiment [4]; 5.23 µM in experiment [5]; 9.75 µM in experiment [6]. Besides, the TGI in experiment [7] is 27.9 µM; in [8], 3.52 µM; in experiment [9], 18.1 µM; in experiment [10] it was 3.81 µM.
Turning to `Cn1c2ccccc2c2c(=O)n(CCCC(=O)NCCc3cnc[nH]3)c3c(-c4ccccc4)nnn3c21`, the GI50 in [1] was 8.86 µM; in experiment [2], 9.09 µM; in experiment [3], 8.9 µM; in experiment [4] it was 7550 nM; in experiment [5], 11.9 µM; in experiment [6], 10.2 µM. The GI50 is 11800 nM in experiment [7], 13000 nM in [8], 10100 nM in experiment [9] and 9460 nM in experiment [10]. Moreover, the TGI in experiment [1] is 16.9 µM; in experiment [2], 17.2 µM; in experiment [3], 27 µM; in experiment [4] it was 16700 nM; in [5], 24.3 µM; in experiment [6], 18.7 µM. For the same compound, the TGI amounted to 24.1 µM in experiment [7], 30.3 µM in experiment [8], 20.5 µM in experiment [9] and 18.4 µM in experiment [10].
`Cc1c(C(=O)/C=C/c2ccc(Cl)cc2)nnn1-c1ccnc2c(C(F)(F)F)cccc12`: the GI50 is > 100 µM in experiment [1]; 53.5 µM in experiment [2]; 8.67 µM in experiment [3]; 26800 nM in experiment [4]; > 100 µM in [5]; 42.1 µM in experiment [6]. Besides, the GI50 in experiment [7] was 33900 nM; in [8], 70700 nM; in experiment [9], 151 nM; in experiment [10], 12900 nM. The TGI in experiment [1] was > 100 µM; in experiment [2], > 100 µM; in experiment [3], > 100 µM; in experiment [4], > 100000 nM; in experiment [5], > 100 µM; in experiment [6] it was 92.9 µM. The TGI in experiment [7] was > 100 µM; in [8] it was > 100 µM; in experiment [9], 0.966 µM; in [10] it was 47.8 µM.
With `CCCCCCCCCCCCSC1=CC(=O)C=CC1=O`, the GI50 in experiment [1] is 13.6 µM; in [2], 5.54 µM; in experiment [3], 6.44 µM; in [4], 13100 nM; in experiment [5] it was 11.7 µM; in [6], 12.2 µM. Besides, the GI50 in [7] was 1690 nM; in [8], 2220 nM; in experiment [9], 2170 nM; in experiment [10] it was 311 nM. Besides, the TGI is > 39.9 µM in [1]; 14.3 µM in experiment [2]; > 36.9 µM in experiment [3]; > 50000 nM in [4]; > 37.1 µM in experiment [5]; > 33.4 µM in experiment [6]. The TGI in experiment [7] is > 28.6 µM; in experiment [8], > 50 µM; in experiment [9], 9 µM; in experiment [10] it was 4.57 µM.
`CC[C@H](C)C(=O)O[C@H]1CCC=C2C=C[C@H](C)[C@H](CC[C@@H]3C[C@@H](O)CC(=O)O3)[C@H]21`: the GI50 in [1] was 15.3 µM; in [2], 3.39 µM; in experiment [3], 22 µM; in [5], 8.97 µM; in experiment [6] it was 5.96 µM; in experiment [7], 3540 nM. The GI50 was > 42500 nM in experiment [8], 19800 nM in experiment [9] and 1130 nM in [10]. For the same compound, the TGI in [1] was > 100 µM; in experiment [2], 13.6 µM; in experiment [3] it was > 100 µM; in [4] it was > 100000 nM; in experiment [5] it was > 100 µM; in [6], > 100 µM. Besides, the TGI in experiment [7], in experiment [8], in [9] and in [10] was > 100 µM throughout.
